Assay results taken from article PMC5963591, “Bitopic Binding Mode of an M1 Muscarinic Acetylcholine Receptor Agonist Associated with Adverse Clinical Trial Outcomes” (Molecular Pharmacology, 2018).

Experiments:
[1] = target: T1, human mAChR M2 (Homo sapiens, UniProt P08172); test: [3H]-NMS competition binding, CHO membranes, M2
T1 construct: purchased PerkinElmer; host or cells: CHO
Description: (§1) For competition binding experiments at M1, M2, M3, M4, and M5 mAChRs, CHO membranes were purchased from PerkinElmer. All experiments were performed in assay buffer of the following composition: 20 mM HEPES, 100 mM NaCl, and 10 mM MgCl2, pH 7.5, and used 10 µg protein/well in a total assay volume of 1 ml using deep well blocks. […] All assay incubations were initiated by the addition of membrane suspensions and deep well blocks were shaken for 5 minutes to ensure complete mixing. Incubation was then carried out for 2 hours at 21°C. Binding reactions were terminated by rapid filtration through GF/A filters (PerkinElmer) presoaked with 0.5% (w/v) polyethylenimine for 1 hour. Filters were then washed three times with 1 ml ice-cold assay buffer.
(§2) Inhibition binding data were curve-fit using GraphPad Prism 6 to derive the potency (IC50) of the test compound. The equilibrium dissociation constant (KI) of the test compound was then calculated with the Cheng–Prusoff equation: KI = IC50/[1 + ([L]/KD)] using the KD value derived separately from saturation binding studies.

[2] = target: T2, human M1 receptor (Homo sapiens, UniProt P11229); test: ERK1/2 phosphorylation, CHO Flp-In human M1 cells; assay type: cell-based
T2 construct: expressed in transfected cells; host or cells: CHO Flp-In
T2 sequence (P11229 1-460): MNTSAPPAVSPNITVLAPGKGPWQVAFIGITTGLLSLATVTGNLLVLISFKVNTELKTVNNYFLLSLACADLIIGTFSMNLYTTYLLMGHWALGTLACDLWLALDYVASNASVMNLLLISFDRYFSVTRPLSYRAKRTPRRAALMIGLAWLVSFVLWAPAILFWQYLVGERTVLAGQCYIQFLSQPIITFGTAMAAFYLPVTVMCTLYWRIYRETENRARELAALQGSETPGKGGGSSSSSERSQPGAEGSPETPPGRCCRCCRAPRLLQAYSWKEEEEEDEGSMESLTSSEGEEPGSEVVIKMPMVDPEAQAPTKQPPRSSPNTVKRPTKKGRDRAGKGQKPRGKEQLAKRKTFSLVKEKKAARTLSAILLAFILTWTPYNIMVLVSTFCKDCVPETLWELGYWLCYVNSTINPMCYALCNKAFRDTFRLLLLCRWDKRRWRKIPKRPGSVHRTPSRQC
Description: CHO Flp-In cells stably expressing the human M1 receptor were seeded onto transparent 96-well plates at 20,000 cells/well and grown to confluence. Cells were serum starved overnight prior to the experiment. Prior to the stimulations, cells were washed with 100 μl phosphate-buffered saline and then incubated in serum free F12 medium at 37°C. Cells were stimulated with ligands for 5 minutes at 37°C in a final volume of 200 μl. The stimulations were terminated by rapid aspiration and addition of 50 μl lysis buffer supplemented with blocking reagent per the manufacturer’s instructions, followed by gentle agitation at room temperature for 30 minutes. Subsequently, 16 μl of this lysate was transferred to a 384-well white ProxiPlate (PerkinElmer) and incubated with 4 μl premixed antibody solution for 2 hours at room temperature.
For the analysis, all families of agonist curves at each pathway were globally fitted to the model with the parameters, basal, Em, and n shared between all agonists. For full agonists, the LogKA was constrained to a value of zero, whereas for partial agonists this was directly estimated by the curve fitting procedure; the Log(τ/KA) parameter was estimated as a unique measure of activity for each agonist.

[3] = test system: rodents; set-up: method as in Budzik et al., 2010; conditions: ref Budzik et al., 2010; cited from earlier work
[4] = target: T3, human mAChR M3 (Homo sapiens, UniProt P20309); test: [3H]-NMS competition binding, CHO membranes, M3; conditions: compared with other subtypes
T3 construct: purchased PerkinElmer; host or cells: CHO
Description: as §1, §2

[5] = target: T4, M3 mAChR (Homo sapiens, UniProt P20309); test: ERK1/2 phosphorylation, CHO cells, M3; assay type: cell-based
T4 construct: expressed in transfected cells; host or cells: CHO

[6] = target: T5, human M1 mAChR (Homo sapiens, UniProt P11229); test: Kinetic [3H]-NMS binding (dissociation) in membranes; set-up: expressed in transfected cells; host or cells: CHO Flp-In; conditions: compound 10 μM plus atropine 10 μM
T5 sequence (P11229 1-460): T2 sequence (P11229 1-460)
Description: Reactions were terminated by rapid filtration onto GF/B filter paper (Whatman, Maidstone, UK) and three washes with 3 ml ice-cold 0.9% NaCl using a Brandel harvester (M-24TI; Brandel, Fort Lauderdale, FL). Membrane bound radioactivity was determined by liquid scintillation (Ultima Gold; PerkinElmer) counting.

[7] = target: [35S]-GTPγS Gαq binding in rat cortex membranes; test: Native tissue GTPγ[35S] binding assay (Gαq antibody capture); assay type: biochemical
Description: GTPɣ-[^35S] ([^35S]ɣ[guanosine-5′-O-(3-[^35S]thio)triphosphate] binding in rat membranes was determined in triplicate using an antibody capture technique in 96-well plate format (DeLapp et al., 1999). Native rat membranes were prepared as follows. All procedures were performed at 4°C. Ten to fifteen milliliters of sucrose buffer (10 mM HEPES, 1 mM EGTA, 1 mM dithiothreitol, 10% sucrose, and one tablet/50 ml Complete Protease Inhibitor Cocktail, pH 7.4) was added to each tissue sample and homogenized for 10 strokes using an electric IKA RW20 homogenizer (800 rpm) (IKA, Staufen, Germany) with glass homogenizer. The homogenate was centrifuged at 1000g for 10 minutes at 4°C and the supernatant collected. The pellet was rehomogenized and centrifuged again as above and the supernatant pooled and centrifuged at 11,000g for 20 minutes at 4°C. The resulting pellet was suspended in 40 ml final storage buffer (10 mM HEPES, 1 mM EGTA, 1 mM MgCl2, and 1 mM dithiothreitol, pH 7.4) and centrifuged at 27,000g for 20 minutes at 4°C. The supernatant was removed and the final pellet was suspended in 2 ml final storage buffer. The protein concentration was measured using the Bradford method (Coomassie Plus, Bio-Rad protein assay kit; Bio-Rad, Hercules, CA) with bovine gamma globulin standards. […] Plates were counted for 1 minute/well using a Wallac MicroBeta Trilux scintillation counter (PerkinElmer). […]

[8] = target: T6, M1 DREADD (Homo sapiens, UniProt P11229, A196G/Y106C); test: Receptor phosphorylation at serine 228, M1 DREADD, CHO Flp-In cells; assay type: cell-based; conditions: compared with wild type
T6 construct: HA; expressed in transfected cells; host or cells: CHO Flp-In
T6 sequence (P11229 whole entry Y106C/A196G): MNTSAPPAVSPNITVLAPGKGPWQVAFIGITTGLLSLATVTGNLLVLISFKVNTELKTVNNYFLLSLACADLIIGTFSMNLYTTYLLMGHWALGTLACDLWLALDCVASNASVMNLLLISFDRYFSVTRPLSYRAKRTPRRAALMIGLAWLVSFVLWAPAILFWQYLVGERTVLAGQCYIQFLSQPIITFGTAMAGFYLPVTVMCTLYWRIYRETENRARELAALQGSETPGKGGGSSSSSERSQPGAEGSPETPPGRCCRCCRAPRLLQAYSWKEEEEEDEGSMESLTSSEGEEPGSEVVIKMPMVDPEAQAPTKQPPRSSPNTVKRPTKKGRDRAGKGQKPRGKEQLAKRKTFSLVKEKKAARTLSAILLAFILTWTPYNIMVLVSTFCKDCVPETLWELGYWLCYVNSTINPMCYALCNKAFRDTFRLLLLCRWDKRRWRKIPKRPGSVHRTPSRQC

T4 sequence (P20309 whole entry): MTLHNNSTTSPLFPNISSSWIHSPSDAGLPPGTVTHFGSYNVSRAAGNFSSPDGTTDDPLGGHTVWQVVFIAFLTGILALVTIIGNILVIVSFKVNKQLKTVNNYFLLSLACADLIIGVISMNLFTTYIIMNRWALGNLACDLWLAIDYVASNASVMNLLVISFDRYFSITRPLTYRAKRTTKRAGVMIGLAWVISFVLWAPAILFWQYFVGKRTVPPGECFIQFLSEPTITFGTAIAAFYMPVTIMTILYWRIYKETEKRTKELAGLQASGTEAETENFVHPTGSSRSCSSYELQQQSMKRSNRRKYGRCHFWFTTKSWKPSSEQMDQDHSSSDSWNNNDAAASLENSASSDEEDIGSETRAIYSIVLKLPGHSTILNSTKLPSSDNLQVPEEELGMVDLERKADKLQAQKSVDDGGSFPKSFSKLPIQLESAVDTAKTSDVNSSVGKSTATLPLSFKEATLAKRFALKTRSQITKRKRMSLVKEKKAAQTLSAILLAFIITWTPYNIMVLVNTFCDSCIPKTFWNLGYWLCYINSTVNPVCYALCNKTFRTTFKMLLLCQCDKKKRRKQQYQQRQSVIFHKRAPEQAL
T3 sequence (P20309 whole entry): as above
T1 sequence (P08172 whole entry): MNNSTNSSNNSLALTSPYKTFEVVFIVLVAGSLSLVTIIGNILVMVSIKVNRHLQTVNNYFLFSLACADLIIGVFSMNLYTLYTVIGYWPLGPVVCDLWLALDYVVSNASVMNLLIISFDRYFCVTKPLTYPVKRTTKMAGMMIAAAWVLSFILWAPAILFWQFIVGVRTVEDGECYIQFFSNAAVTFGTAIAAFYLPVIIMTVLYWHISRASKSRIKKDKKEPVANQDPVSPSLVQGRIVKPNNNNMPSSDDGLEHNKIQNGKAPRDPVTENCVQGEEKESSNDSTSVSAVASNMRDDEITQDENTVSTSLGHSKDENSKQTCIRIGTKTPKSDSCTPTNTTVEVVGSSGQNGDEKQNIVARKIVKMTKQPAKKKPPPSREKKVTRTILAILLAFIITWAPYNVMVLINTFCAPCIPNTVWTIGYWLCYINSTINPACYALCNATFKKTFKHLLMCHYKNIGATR

- Ki [1]: 3.98 µM
- ERK1/2 Phosphorylation ΔLog10(τ/KA) ([2]; normalized to reference ligand ACh): 0.1 ± 0.1
- ERK1/2 Phosphorylation Log10(τ/KA) ([2]; transduction coefficient, wild-type M1 mAChR): 7.2 ± 0.1
- affinity for the M3 mAChR [4]: much lower affinity
- functional activity in ERK1/2 phosphorylation [5]: devoid of activity
- effect on the [^3H]-NMS dissociation rate [6]: no effect
- pEC50, [^35S]-GTPγS Gαq binding [7]: 6.7 ± 0.1
- [^35S]-GTPγS Gαq binding, maximum relative to oxotremorine-M ([7]; % of maximum elicited by oxotremorine-M): approximately 37%
- phosphorylation at serine 228 [8]: unchanged
SMILES: Cc1cc(F)c2[nH]c(=O)n(C3CCN(C4CCOCC4)CC3)c2c1 [GSK1034702, 7-fluoro-5-methyl-3-[1-(oxan-4-yl)piperidin-4-yl]-1H-benzimidazol-2-one]
- effect on scopolamine-induced amnesia [3]: reversed scopolamine-induced amnesia
